{"source": "patent US20070161683A1", "about": "“Certain chemical entities, compositions, and methods” (priority 2005, published 2007)", "origin": "cited, not measured here"}
{"test_system": "A549 cells", "settings": "concentration that decreases the rate of cell growth by fifty percent", "units": {"GI50": "nM"}}
{"smiles": "COc1cccc2c1C(=O)c1c(O)c3c(c(O)c1C2=O)C[C@@](O)(C(=O)CO)C[C@@H]3O[C@H]1C[C@H](N)[C@H](O)[C@H](C)O1", "note": "[doxorubicin]", "GI50": 63}
{"smiles": "O=c1[nH]cc(F)c(=O)[nH]1", "note": "[5-fluorouracil]", "GI50": 1000}
{"smiles": "CC(=O)O[C@H]1C(=O)[C@@]2(C)[C@H]([C@H](OC(=O)c3ccccc3)[C@]3(O)C[C@H](OC(=O)[C@H](O)[C@@H](NC(=O)c4ccccc4)c4ccccc4)C(C)=C1C3(C)C)[C@]1(OC(C)=O)CO[C@@H]1C[C@@H]2O", "note": "[paclitaxel]", "GI50": 4}
{"smiles": "NC(=O)NO", "note": "[hydroxyurea]", "GI50": 500000}
